PubChem BioAssay AID248 (DTP/NCI, 2004)
Inconclusive results and toxic doses are left out.

Tested on: L1210 leukemia ip in BDF1 mice, survival T/C
Assay: NCI In Vivo Anticancer Drug Screen. Data for tumor model L1210 Leukemia (intraperitoneal) in B6D2F1 (BDF1) mice
Conditions: endpoint: mean survival time, higher = longer survival
Summary of the method: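 In this screen, tumor-bearing mice given compound are compared to those given vehicle, and their survival values are reported as a treated-to-control quotient.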

[1] = dose: 400.0 mg/kg/injection, schedule: Q04DX003 (ip), vehicle: saline
[2] = dose: 100.0 mg/kg/injection, schedule: Q04DX003 (ip), vehicle: Klucel (hydroxypropylcellulose) (HPC)
[3] = dose: 200.0 mg/kg/injection, schedule: Q04DX003 (ip), vehicle: Klucel (hydroxypropylcellulose) (HPC)
[4] = dose: 400.0 mg/kg/injection, schedule: Q04DX003 (ip), vehicle: Klucel (hydroxypropylcellulose) (HPC)

Compound: O=C(NCc1ccccc1Cl)Nc1ccccc1F
- T/C (dose: 100.0 mg/kg/injection, schedule: Q01DX009 (ip), vehicle: Klucel (hydroxypropylcellulose) (HPC)): 106 % of control
- T/C (dose: 200.0 mg/kg/injection, schedule: Q01DX009 (ip), vehicle: Klucel (hydroxypropylcellulose) (HPC)): 98 % of control
- T/C (dose: 400.0 mg/kg/injection, schedule: Q01DX009 (ip), vehicle: Klucel (hydroxypropylcellulose) (HPC)): 115 % of control

Compound: Nc1ccnc(SCc2ccc(Cl)cc2)n1
- T/C (dose: 100.0 mg/kg/injection, schedule: Q04DX003 (ip), vehicle: gum acacia): 105 % of control
- T/C (dose: 200.0 mg/kg/injection, schedule: Q04DX003 (ip), vehicle: gum acacia): 104 % of control
- T/C (dose: 400.0 mg/kg/injection, schedule: Q04DX003 (ip), vehicle: gum acacia): 98 % of control

Compound: S=C(S)NCCNC(=S)S
- T/C (dose: 100.0 mg/kg/injection, schedule: Q04DX003 (ip), vehicle: saline with Tween-80): 93 % of control
- T/C (dose: 100.0 mg/kg/injection, schedule: Q04DX003 (ip), vehicle: saline): 95 % of control
- T/C (dose: 200.0 mg/kg/injection, schedule: Q04DX003 (ip), vehicle: saline with Tween-80): 90 % of control
- T/C (dose: 200.0 mg/kg/injection, schedule: Q04DX003 (ip), vehicle: saline): 97 % of control
- T/C (dose: 400.0 mg/kg/injection, schedule: Q04DX003 (ip), vehicle: saline with Tween-80): 87 % of control
- T/C [1]: 101 % of control

Compound: C#CCn1cnc2c(=S)nc[nH]c21
- T/C (dose: 10.0 mg/kg/injection, schedule: Q01DX009 (ip), vehicle: saline): 104 % of control
- T/C (dose: 15.0 mg/kg/injection, schedule: Q04DX003 (ip), vehicle: saline): 103 % of control
- T/C (dose: 25.0 mg/kg/injection, schedule: Q01DX009 (ip), vehicle: saline): 114 % of control
- T/C (dose: 30.0 mg/kg/injection, schedule: Q04DX003 (ip), vehicle: saline): 111 % of control
- T/C (dose: 52.0 mg/kg/injection, schedule: Q04DX003 (ip), vehicle: Klucel (hydroxypropylcellulose) (HPC)): 110 % of control
- T/C (dose: 60.0 mg/kg/injection, schedule: Q04DX003 (ip), vehicle: saline): 111 % of control
- T/C (dose: 78.0 mg/kg/injection, schedule: Q04DX003 (ip), vehicle: Klucel (hydroxypropylcellulose) (HPC)): 115 % of control
- T/C (dose: 90.0 mg/kg/injection, schedule: Q01DX009 (ip), vehicle: saline): 119 % of control
- T/C (dose: 100.0 mg/kg/injection, schedule: Q01DX001 (ip), vehicle: other): 104 % of control
- T/C [2]: 113 % of control
- T/C (dose: 118.0 mg/kg/injection, schedule: Q04DX003 (ip), vehicle: Klucel (hydroxypropylcellulose) (HPC)): 115 % of control
- T/C (dose: 175.0 mg/kg/injection, schedule: Q01DX009 (ip), vehicle: saline): 93 % of control
- T/C (dose: 177.0 mg/kg/injection, schedule: Q01DX001 (ip), vehicle: Klucel (hydroxypropylcellulose) (HPC)): 108 % of control
- T/C (dose: 177.0 mg/kg/injection, schedule: Q04DX003 (ip), vehicle: Klucel (hydroxypropylcellulose) (HPC)): 155 % of control
- T/C (dose: 177.0 mg/kg/injection, schedule: Q04DX003 (ip), vehicle: saline): 150 % of control
- T/C (dose: 200.0 mg/kg/injection, schedule: Q01DX001 (ip), vehicle: other): 121 % of control
- T/C [3]: 124 % of control
- T/C (dose: 266.0 mg/kg/injection, schedule: Q04DX003 (ip), vehicle: Klucel (hydroxypropylcellulose) (HPC)): 162 % of control
- T/C (dose: 266.0 mg/kg/injection, schedule: Q04DX003 (ip), vehicle: saline): 116 % of control
- T/C [4]: 157 % of control
- T/C [1]: 114 % of control
- T/C (dose: 600.0 mg/kg/injection, schedule: Q01DX001 (ip), vehicle: Klucel (hydroxypropylcellulose) (HPC)): 152 % of control
- T/C (dose: 600.0 mg/kg/injection, schedule: Q01DX001 (ip), vehicle: other): 156 % of control
- T/C (dose: 600.0 mg/kg/injection, schedule: Q04DX003 (ip), vehicle: saline): 112 % of control

Compound: CCOC(=O)/C(Br)=C/SCCN
- T/C (dose: 100.0 mg/kg/injection, schedule: Q01DX009 (ip), vehicle: saline): 97 % of control
- T/C (dose: 200.0 mg/kg/injection, schedule: Q01DX009 (ip), vehicle: saline): 92 % of control
- T/C (dose: 400.0 mg/kg/injection, schedule: Q01DX009 (ip), vehicle: saline): 91 % of control

Compound: COP(=O)(O)C(C)=O (tested in a mixture with another compound)
- T/C (dose: 100.0 mg/kg/injection, schedule: Q04DX002 (ip), vehicle: other): 96 % of control
- T/C (dose: 200.0 mg/kg/injection, schedule: Q04DX002 (ip), vehicle: other): 114 % of control
- T/C (dose: 400.0 mg/kg/injection, schedule: Q04DX002 (ip), vehicle: other): 101 % of control

Compound: c1ccc(CSCCSCc2ccccc2)cc1
- T/C (dose: 87.5 mg/kg/injection, schedule: Q01DX009 (ip), vehicle: other): 95 % of control
- T/C (dose: 175.0 mg/kg/injection, schedule: Q01DX009 (ip), vehicle: other): 101 % of control
- T/C (dose: 350.0 mg/kg/injection, schedule: Q01DX009 (ip), vehicle: other): 104 % of control

Compound: OCC1OC(n2cnc3c(NO)nc(NO)nc32)C(O)C1O (stereo not given)
- T/C (dose: 30.0 mg/kg/injection, schedule: Q01DX009 (ip), vehicle: saline): 151 % of control
- T/C (dose: 150.0 mg/kg/injection, schedule: Q01DX001 (ip), vehicle: saline): 115 % of control

Compound: Cc1cc([N+](=O)[O-])ccc1S(N)(=O)=O
- T/C [2]: 105 % of control
- T/C [3]: 105 % of control
- T/C [4]: 109 % of control
